Drawing on ChEMBL document CHEMBL1150896, “Arenarins A-C: new cytotoxic fungal metabolites from the sclerotia of aspergillus arenarius” (1998), this text covers Activity and GI50 for three compounds.

Values after ≈ are worked out from the molar mass of the structure shown.

Common to all, as to assay type: functional
The subject of assay [1] is Carpophilus. In words: Reduction of feeding rate in Carpophilus hemipterus larvae at 100 ppm dietary level relative to control. Further details: scale not given: the % may be the effect or the level left.
Assay [2] is described as follows: Cytotoxicity against human NCI60 cells.
In assay [3] the test system is Carpophilus. Kind of assay: Reduction of feeding rate in adult Carpophilus hemipterus at 100 ppm dietary level relative to control. Further details: scale not given: the % may be the effect or the level left.

Consider `COc1c(-c2ccc(O)cc2)c(O)cc2c1oc1cc(O)c(OCC=C(C)C)cc12` [ARENARIN A], for which the Activity in the assay with Carpophilus [1] and in the assay with Carpophilus [3] was 13% in each case. Also, in assay [2], it took 4.8 µg/mL (≈ 11.8 µM) to inhibit growth by half (GI50).

With `C=C(C)C1Cc2c(ccc(O)c2OC/C=C(\C)CO)C2=C1C(=O)C(c1ccc(O)cc1)=C(OC)C2=O` (stereo unspecified) [ARENARIN B], in assay [2], it took 3.8 µg/mL (≈ 7.78 µM) to inhibit growth by half (GI50). Besides, the Activity with Carpophilus [3] came out at 20%.

`C=C(C)C1Cc2c(ccc(OC)c2OC/C=C(\C)CO)C2=C1C(=O)C(c1ccc(O)cc1)=C(OC)C2=O` (stereo unspecified) [ARENARIN C] returned an Activity in the assay with Carpophilus [3] of 13%.
